Source: PubChem BioAssay (NCI)
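Protocol summary: plate cells (96-well), add compound at 5 concentrations, incubate 48 h, interpolate endpoints linearly. At the GI50, growth is halved. TGI denotes the concentration required for complete inhibition of growth.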

Key:
Experiment in all cases: NCI tumour cell line growth inhibition, 48 h
786-0 renal = system: 786-0 renal
A498 renal = system: A498 renal
A549 NSCLC = system: A549 NSCLC
ACHN renal = system: ACHN renal
BT-549 breast = system: BT-549 breast
CAKI-1 renal = system: CAKI-1 renal
CCRF-CEM leukemia = system: CCRF-CEM leukemia
COLO 205 colon = system: COLO 205 colon
DU-145 prostate = system: DU-145 prostate
EKVX NSCLC = system: EKVX NSCLC
HCC-2998 colon = system: HCC-2998 colon
HCT-116 colon = system: HCT-116 colon
HCT-15 colon = system: HCT-15 colon
HL-60(TB) leukemia = system: HL-60(TB) leukemia
HOP-62 NSCLC = system: HOP-62 NSCLC
HOP-92 NSCLC = system: HOP-92 NSCLC
HS 578T breast = system: HS 578T breast
HT29 colon = system: HT29 colon
IGROV1 ovarian = system: IGROV1 ovarian
K-562 leukemia = system: K-562 leukemia
KM12 colon = system: KM12 colon
LOX IMVI melanoma = system: LOX IMVI melanoma
M14 melanoma = system: M14 melanoma
MALME-3M melanoma = system: MALME-3M melanoma
MCF7 breast = system: MCF7 breast
MDA-MB-231 breast = system: MDA-MB-231 breast
MDA-MB-435 = system: MDA-MB-435
MOLT-4 leukemia = system: MOLT-4 leukemia
NCI-H226 lung = system: NCI-H226 lung
NCI-H23 lung = system: NCI-H23 lung
NCI-H460 lung = system: NCI-H460 lung
NCI-H522 lung = system: NCI-H522 lung
OVCAR-3 ovarian = system: OVCAR-3 ovarian
OVCAR-5 ovarian = system: OVCAR-5 ovarian
OVCAR-8 ovarian = system: OVCAR-8 ovarian
PC-3 prostate = system: PC-3 prostate
RPMI-8226 leukemia = system: RPMI-8226 leukemia
RXF 393 renal = system: RXF 393 renal
SF-268 CNS = system: SF-268 CNS
SF-295 CNS = system: SF-295 CNS
SF-539 CNS = system: SF-539 CNS
SK-MEL-2 melanoma = system: SK-MEL-2 melanoma
SK-MEL-28 melanoma = system: SK-MEL-28 melanoma
SK-MEL-5 melanoma = system: SK-MEL-5 melanoma
SK-OV-3 ovarian = system: SK-OV-3 ovarian
SN12C renal = system: SN12C renal
SNB-19 CNS = system: SNB-19 CNS
SNB-75 CNS = system: SNB-75 CNS
SR leukemia = system: SR leukemia
SW-620 colon = system: SW-620 colon
T-47D breast = system: T-47D breast
TK-10 renal = system: TK-10 renal
UACC-257 melanoma = system: UACC-257 melanoma
UACC-62 melanoma = system: UACC-62 melanoma
UO-31 renal = system: UO-31 renal

CCOC(=O)c1ccc2[nH]c(O)c(C(=Nc3ccc(N(C)C(=O)CN4CCN(C)CC4)cc3)c3ccccc3)c2c1
GI50 (786-0 renal): 213 nM
TGI (786-0 renal): 1780 nM
GI50 (A498 renal): 162 nM
TGI (A498 renal): 1060 nM
GI50 (A549 NSCLC): 416 nM
TGI (A549 NSCLC): 2730 nM
GI50 (ACHN renal): 356 nM
TGI (ACHN renal): 1530 nM
GI50 (BT-549 breast): 1040 nM
TGI (BT-549 breast): 2320 nM
GI50 (CAKI-1 renal): 103 nM
TGI (CAKI-1 renal): 1160 nM
GI50 (CCRF-CEM leukemia): 416 nM
TGI (CCRF-CEM leukemia): 8.65 µM
GI50 (COLO 205 colon): 275 nM
TGI (COLO 205 colon): 1470 nM
GI50 (DU-145 prostate): 490 nM
TGI (DU-145 prostate): 2100 nM
GI50 (EKVX NSCLC): 955 nM
TGI (EKVX NSCLC): 2740 nM
GI50 (HCC-2998 colon): 655 nM
TGI (HCC-2998 colon): 2060 nM
GI50 (HCT-116 colon): 172 nM
TGI (HCT-116 colon): 1260 nM
GI50 (HCT-15 colon): 402 nM
TGI (HCT-15 colon): 1810 nM
GI50 (HL-60(TB) leukemia): 356 nM
TGI (HL-60(TB) leukemia): 1150 nM
GI50 (HOP-62 NSCLC): 428 nM
TGI (HOP-62 NSCLC): 2180 nM
GI50 (HOP-92 NSCLC): 781 nM
TGI (HOP-92 NSCLC): 2780 nM
GI50 (HS 578T breast): 64.4 nM
TGI (HS 578T breast): 1010 nM
GI50 (HT29 colon): 185 nM
TGI (HT29 colon): 8.87 µM
GI50 (IGROV1 ovarian): 111 nM
TGI (IGROV1 ovarian): 1240 nM
GI50 (K-562 leukemia): 62.5 nM
TGI (K-562 leukemia): 2040 nM
GI50 (KM12 colon): 17.2 nM
TGI (KM12 colon): 1510 nM
GI50 (LOX IMVI melanoma): 300 nM
TGI (LOX IMVI melanoma): 1410 nM
GI50 (M14 melanoma): 339 nM
TGI (M14 melanoma): 1530 nM
GI50 (MALME-3M melanoma): 454 nM
TGI (MALME-3M melanoma): 1840 nM
GI50 (MCF7 breast): 418 nM
TGI (MCF7 breast): 1990 nM
GI50 (MDA-MB-231 breast): 222 nM
TGI (MDA-MB-231 breast): 1540 nM
GI50 (MDA-MB-435): 667 nM
TGI (MDA-MB-435): 2000 nM
GI50 (MOLT-4 leukemia): 254 nM
TGI (MOLT-4 leukemia): 2000 nM
GI50 (NCI-H226 lung): 596 nM
TGI (NCI-H226 lung): 2400 nM
GI50 (NCI-H23 lung): 467 nM
TGI (NCI-H23 lung): 2230 nM
GI50 (NCI-H460 lung): 810 nM
TGI (NCI-H460 lung): 2450 nM
GI50 (NCI-H522 lung): 1120 nM
TGI (NCI-H522 lung): 3.34 µM
GI50 (OVCAR-3 ovarian): 774 nM
TGI (OVCAR-3 ovarian): 2300 nM
GI50 (OVCAR-5 ovarian): 1350 nM
TGI (OVCAR-5 ovarian): 3.44 µM
GI50 (OVCAR-8 ovarian): 514 nM
TGI (OVCAR-8 ovarian): 2890 nM
GI50 (PC-3 prostate): 467 nM
TGI (PC-3 prostate): 2370 nM
GI50 (RPMI-8226 leukemia): 598 nM
TGI (RPMI-8226 leukemia): 3.55 µM
GI50 (RXF 393 renal): 189 nM
TGI (RXF 393 renal): 698 nM
GI50 (SF-268 CNS): 413 nM
TGI (SF-268 CNS): 2030 nM
GI50 (SF-295 CNS): 894 nM
TGI (SF-295 CNS): 2200 nM
GI50 (SF-539 CNS): 247 nM
TGI (SF-539 CNS): 979 nM
GI50 (SK-MEL-2 melanoma): 780 nM
TGI (SK-MEL-2 melanoma): 2570 nM
GI50 (SK-MEL-28 melanoma): 1110 nM
TGI (SK-MEL-28 melanoma): 2480 nM
GI50 (SK-MEL-5 melanoma): 426 nM
TGI (SK-MEL-5 melanoma): 1580 nM
GI50 (SK-OV-3 ovarian): 206 nM
TGI (SK-OV-3 ovarian): 1230 nM
GI50 (SN12C renal): 144 nM
TGI (SN12C renal): 1540 nM
GI50 (SNB-19 CNS): 743 nM
TGI (SNB-19 CNS): 2100 nM
GI50 (SNB-75 CNS): 178 nM
TGI (SNB-75 CNS): 2060 nM
GI50 (SR leukemia): 121 nM
TGI (SR leukemia): 901 nM
GI50 (SW-620 colon): 346 nM
TGI (SW-620 colon): 1620 nM
GI50 (T-47D breast): 979 nM
TGI (T-47D breast): 3.31 µM
GI50 (TK-10 renal): 540 nM
TGI (TK-10 renal): 3.33 µM
GI50 (UACC-257 melanoma): 1380 nM
TGI (UACC-257 melanoma): 3.17 µM
GI50 (UACC-62 melanoma): 1410 nM
TGI (UACC-62 melanoma): 3.09 µM
GI50 (UO-31 renal): 323 nM
TGI (UO-31 renal): 1560 nM
